Holding throughout (type): cell-based
The target in data set [1] is T1, Homeobox protein Meis1 (Homo sapiens) (UniProt O00470).
T1 sequence (whole entry): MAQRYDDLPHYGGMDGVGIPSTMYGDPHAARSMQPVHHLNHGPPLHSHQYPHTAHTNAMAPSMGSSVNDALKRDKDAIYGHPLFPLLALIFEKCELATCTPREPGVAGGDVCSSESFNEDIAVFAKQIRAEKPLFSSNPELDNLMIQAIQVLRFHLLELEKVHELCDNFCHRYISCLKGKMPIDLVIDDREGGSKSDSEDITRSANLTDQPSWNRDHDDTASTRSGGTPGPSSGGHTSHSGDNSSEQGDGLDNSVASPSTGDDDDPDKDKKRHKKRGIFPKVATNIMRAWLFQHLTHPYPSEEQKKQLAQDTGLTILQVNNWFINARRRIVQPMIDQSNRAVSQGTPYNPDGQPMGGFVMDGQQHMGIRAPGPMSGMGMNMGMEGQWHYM
Description: Inhibition of MEIS1 (unknown origin) expressed in HEK293T cells co-expressing MEIS-Luc-pGL2 assessed as luciferase activity at 10 uM incubated for 48 hrs by luciferase reporter assay related to protein content. Set-up: scale not given: the % may be the effect or the level left.

Data set [2] concerns the target T1, Homeobox protein Meis1 (Homo sapiens). In words: Inhibition of MEIS1 (unknown origin) expressed in HEK293T cells co-expressing MEIS-Luc-pGL2 assessed as luciferase activity at 10 uM incubated for 48 hrs by luciferase reporter assay related to […] control. On the set-up: scale not given: the % may be the effect or the level left. Background: Reporter assays use an easily measured gene product as a stand-in for the process of interest.

Data set [3] can be described thus: Cytotoxicity against HDF assessed as cell viability at 10 uM incubated for 72 hrs by MTS assay. To be noted: human, HDF (NHDF) cells, read-out: Activity.
Data set [4] has as its target T1, Homeobox protein Meis1 (Homo sapiens). Description: Inhibition of MEIS1 (unknown origin) expressed in HEK293T cells co-expressing MEIS-Luc-pGL2 assessed as downregulation of Meis1 gene expression measuring mRNA level at 10 uM incubated for 2 days by RT-qPCR analysis. Set-up: scale not given: the % may be the effect or the level left. To be noted: time 2.0 day. (Quantitative PCR measures a nucleic acid by following its amplification.)

The target is the same in data set [5]. In words: Inhibition of MEIS1 (unknown origin) expressed in HEK293T cells co-expressing MEIS-Luc-pGL2 assessed as downregulation of Hif-Ialpha gene expression measuring mRNA level at 10 uM incubated for 2 days by RT-qPCR analysis. To be noted: time 2.0 day.
For data set [6] the target is unchanged. Description: Inhibition of MEIS1 (unknown origin) expressed in HEK293T cells co-expressing MEIS-Luc-pGL2 assessed as downregulation of p21 gene expression by measuring mRNA level at 10 uM incubated for 2 days by RT-qPCR analysis. On the set-up: scale not given: the % may be the effect or the level left. To be noted: time 2.0 day.

The source made the active and inactive calls. The calls are words filed in the database; no cut-off is given here.

Regarding `O=C(COc1ccc(C(=O)Nc2cccc(C(F)(F)F)c2)cc1)NCc1ccc(Cl)cc1`, the Activity was found to be 46% in data set [1] and 44% in data set [2].
For `O=C(COc1ccc(C(=O)Nc2ccccc2F)cc1)NCc1ccccc1Cl` the same measures were 64% and 62%.
On to `COc1ccc(CNC(=O)COc2ccc(C(=O)Nc3ccc(Oc4ccc(Br)cc4)cc3)cc2)cc1`, for which the Activity in data set [1] came out at 37%; in data set [2], 45%.
For the compound `O=C(COc1ccc(C(=O)Nc2cccc(Cl)c2)cc1)NCc1ccc(Cl)cc1`, the viability at 72 h, 10 µM in data set [3] is 86.4%. Also, the Activity in data set [1] was 51%; in data set [2], 32%; in data set [4], 4.5%; in data set [6] it was 19.7%. Besides, the result in data set [5] was Active.
As for `CCc1ccccc1NC(=O)c1ccc(OCC(=O)NCc2ccc(Cl)cc2)cc1`, the viability at 72 h, 10 µM in data set [3] came to 31.3%. In addition, the Activity in data set [1] turned out to be 51%; in data set [2] it was 36%; in data set [4] it was 19.2%; in data set [6], 139%. In data set [5], the outcome was Active.
For the compound `COc1ccc(CNC(=O)COc2ccc(C(=O)Nc3cccc(Cl)c3)cc2)cc1`, in data set [3], the viability at 72 h, 10 µM worked out at 90%. Further, the Activity is 5% in data set [1], 5% in data set [2], 5.9% in data set [4] and 12.7% in data set [6]. In addition, in data set [5], the result was Active.
For `CCc1cccc(NC(=O)c2ccc(OCC(=O)NCc3ccccc3Cl)cc2)c1`, the Activity in data set [1] turned out to be 42%; in data set [2] it was 41%.
For `COc1ccc(CNC(=O)COc2ccc(C(=O)Nc3c(C)cccc3C)cc2)cc1` the same measures were 58% and 62%.
For `Cc1cccc(NC(=O)c2ccc(OCC(=O)NCc3ccc(Cl)cc3)cc2)c1C`, the viability at 72 h, 10 µM in data set [3] came to 73.5%. The Activity stood at 38% in data set [1], 34% in data set [2], 35.9% in data set [4] and 47.4% in data set [6]. Also, the result in data set [5] was Active.
Turning to `COc1ccc(CNC(=O)COc2ccc(C(=O)Nc3ccccc3F)cc2)cc1`, the Activity in data set [1] turned out to be 66%; in data set [2], 70%.
As to `COc1ccc(CNC(=O)COc2ccc(C(=O)Nc3ccc(F)cc3)cc2)cc1`, the viability at 72 h, 10 µM in data set [3] was 86.2%. For the same compound, the Activity is 25% in data set [1], 31% in data set [2], 7.5% in data set [4] and 20.3% in data set [6]. In addition, the result in data set [5] was Active.
Consider `COc1ccc(CNC(=O)COc2ccc(C(=O)Nc3cc(C(F)(F)F)ccc3F)cc2)cc1`, for which the viability at 72 h, 10 µM in data set [3] worked out at 105%. Besides, the Activity was found to be 28% in data set [1], 30% in data set [2], 6.6% in data set [4] and 5.2% in data set [6]. Further, in data set [5], the outcome was Active.
As to `Cc1cccc(C)c1NC(=O)c1ccc(OCC(=O)NCc2ccc(Cl)cc2)cc1`, the Activity was 77% in data set [1] and 55% in data set [2].
For `O=C(COc1ccc(C(=O)Nc2ccccc2F)cc1)NCc1ccc(Cl)cc1` the same measures were 65% and 40%.
For the compound `COc1ccc(CNC(=O)COc2ccc(C(=O)Nc3cccc(C(F)(F)F)c3)cc2)cc1`, the viability at 72 h, 10 µM in data set [3] was found to be 76%. Besides, the Activity in data set [1] came to 1%; in data set [2], 1%; in data set [4], 15.1%; in data set [6] it was 49.5%. Moreover, the result in data set [5] was Active.
On to `O=C(COc1ccc(C(=O)Nc2ccccc2)cc1)NCc1ccccc1Cl`, for which the Activity came to 54% in data set [1] and 48% in data set [2].
For `COc1ccc(CNC(=O)COc2ccc(C(=O)Nc3cccc(C)c3C)cc2)c(OC)c1` the same measures were 50% and 17%.
`CCc1cccc(NC(=O)c2ccc(OCC(=O)NCc3ccc(OC)cc3)cc2)c1`: the Activity in data set [1] and in data set [2] was 51% throughout.
On to `CCc1ccccc1NC(=O)c1ccc(OCC(=O)NCc2ccc(OC)cc2)cc1`, for which the viability at 72 h, 10 µM in data set [3] is 78%. The Activity in data set [1] was 19%; in data set [2], 20%; in data set [4] it was 8.3%; in data set [6], 8.5%. For the same compound, in data set [5], the result was Active.
Turning to `O=C(COc1ccc(C(=O)Nc2ccc(F)cc2)cc1)NCc1ccc(Cl)cc1`, the figures for the Activity in data set [1] and in data set [2] were 69% and 43%, respectively.
With `Cc1cccc(NC(=O)c2ccc(OCC(=O)NCc3ccc(C(F)(F)F)cc3)cc2)c1C`, the Activity in data set [1] worked out at 26%; in data set [2], 81%.
For `O=C(COc1ccc(C(=O)Nc2ccccc2)cc1)NCc1ccc(Cl)cc1` the same measures were 83% and 75%.
Turning to `COc1ccc(CNC(=O)COc2ccc(C(=O)Nc3cccc(C)c3C)cc2)cc1`, the viability at 72 h, 10 µM in data set [3] worked out at 86.3%. Besides, the Activity worked out at 50.6% in data set [1], 48% in data set [2], 14.3% in data set [4] and 15.7% in data set [6]. In data set [5], the outcome was Active.
As for `Cc1cccc(NC(=O)c2ccc(OCC(=O)NCc3ccc4c(c3)OCO4)cc2)c1C`, the Activity came out at 52% in data set [1] and 54% in data set [2].
On to `COc1ccc(CNC(=O)COc2ccc(C(=O)Nc3cccc(C)c3C)cc2)cc1OC`, for which the viability at 72 h, 10 µM in data set [3] is 83.9%. The Activity in data set [1] worked out at 49%; in data set [2], 35%; in data set [4], 9.5%; in data set [6] it was 21.7%. Moreover, the result in data set [5] was Active.
For `COc1ccc(NC(=O)c2ccc(OCC(=O)NCc3ccc(Cl)cc3)cc2)cc1OC`, the Activity in data set [1] was found to be 56%; in data set [2] it was 45%.
For `Cc1cccc(NC(=O)c2ccc(OCC(=O)NCc3cccc(C(F)(F)F)c3)cc2)c1C` the same measures were 57% and 106%.
Consider `Cc1ccc(CNC(=O)COc2ccc(C(=O)Nc3cccc(C)c3C)cc2)cc1`, for which the Activity in data set [1] stood at 48%; in data set [2], 51%.
For `O=C(COc1ccc(C(=O)Nc2cccc(Cl)c2)cc1)NCc1ccccc1Cl` the same measures were 88% and 96%.
For `COc1ccc(CNC(=O)COc2ccc(C(=O)Nc3ccccc3)cc2)cc1` the same measures were 43% and 43%.
For `Cc1cccc(NC(=O)c2ccc(OCC(=O)NCc3ccc([N+](=O)[O-])cc3)cc2)c1C` the same measures were 23% and 144%.
In the case of `Cc1cccc(NC(=O)c2ccc(OCC(=O)NCc3ccccc3)cc2)c1C`, the Activity in data set [1] came to 66%; in data set [2], 69%; in data set [4], 12%; in data set [6], 17.8%.
On to `CCc1ccccc1NC(=O)c1ccc(OCC(=O)NCc2ccccc2Cl)cc1`, for which the Activity in data set [1] amounted to 63%; in data set [2], 66%.
For `Cc1cccc(NC(=O)c2ccc(OCC(=O)NCc3ccc(Cl)c(Cl)c3)cc2)c1C` the same measures were 57% and 47%.
For `CCc1cccc(NC(=O)c2ccc(OCC(=O)NCc3ccc(Cl)cc3)cc2)c1` the same measures were 69% and 49%.
For `Cc1cccc(C)c1NC(=O)c1ccc(OCC(=O)NCc2ccccc2Cl)cc1` the same measures were 53% and 58%.
With `O=C(COc1ccc(C(=O)Nc2cccc(C(F)(F)F)c2)cc1)NCc1ccccc1Cl`, the Activity in data set [1] amounted to 64%; in data set [2], 57%.
For `O=C(COc1ccc(C(=O)Nc2ccc(Oc3ccc(Br)cc3)cc2)cc1)NCc1ccccc1Cl` the same measures were 82% and 82%.
For `O=C(COc1ccc(C(=O)Nc2ccc(F)cc2)cc1)NCc1ccccc1Cl` the same measures were 51% and 50%.
For `O=C(COc1ccc(C(=O)Nc2ccc(Oc3ccc(Br)cc3)cc2)cc1)NCc1ccc(Cl)cc1` the same measures were 72% and 42%.
Regarding `Cc1cccc(NC(=O)c2ccc(OCC(=O)NCc3cccc(Cl)c3Cl)cc2)c1C`, the figures for the Activity in data set [1] and in data set [2] were 48% and 161%, respectively.
For `COc1ccc(NC(=O)c2ccc(OCC(=O)NCc3ccccc3Cl)cc2)cc1OC` the same measures were 80% and 82%.
In the case of `COc1ccc(CNC(=O)COc2ccc(C(=O)Nc3ccc(OC)c(OC)c3)cc2)cc1`, the Activity in data set [1] came out at 63%; in data set [2], 70%.
For `Cc1cccc(NC(=O)c2ccc(OCC(=O)NCc3ccc(Cl)cc3Cl)cc2)c1C` the same measures were 52% and 61%.
